Here are results for one molecule from patent US7176224B2, “Oxazolyl-aryloxyacetic acid derivatives and their use as PPAR agonists” (Eli Lilly and Company, priority 2000, dated 2007).

The test system of test [1] is huPPARγ. As to the kind of experiment: Cotransfection assay in CV-1 cells, luciferase reporter. The class given is cell-based, human. The following applies: GAL4 chimeric system, relative to agonist reference molecule. Here is the method: […] binding (ABCD binding) was carried out using SPA technology with PPAR receptors. […] Cotransfection assays were carried out in CV-1 cells. The reporter plasmid contained an acylCoA oxidase (AOX) PPRE and TK promoter upstream of the luciferase reporter cDNA. Appropriate PPARs and RXRα were constitutively expressed using plasmids containing the CMV promoter. […] In order to eliminate such interference, a GAL4 chimeric system was used in which the DNA binding domain of the transfected PPAR was replaced by that of GAL4, and the GAL4 response element was utilized in place of the AOX PPRE. […] Efficacies were determined by computer fit to a concentration-response curve, or in some cases at a single high concentration of agonist (10 μM). For binding or cotransfection studies with receptors other than PPARs, similar assays were carried out using appropriate ligands, receptors, reporter constructs, etc., for that particular receptor.
(§1) These studies were carried out to evaluate the ability of compounds of the invention to bind to and/or activate various nuclear transcription factors, particularly huPPARα (“hu” indicates “human”) and huPPARγ. These studies provide in vitro data concerning efficacy and selectivity of compounds of the invention. Furthermore, binding and cotransfection data for compounds of the invention were compared with corresponding data for marketed compounds that act on either huPPARα or huPPARγ.
A general note: In a reporter assay the amount or activity of a reporter protein is the signal.

For test [2], the target named is T1, huPPARγ (Homo sapiens, UniProt P37231).
T1 sequence (P37231 1-505): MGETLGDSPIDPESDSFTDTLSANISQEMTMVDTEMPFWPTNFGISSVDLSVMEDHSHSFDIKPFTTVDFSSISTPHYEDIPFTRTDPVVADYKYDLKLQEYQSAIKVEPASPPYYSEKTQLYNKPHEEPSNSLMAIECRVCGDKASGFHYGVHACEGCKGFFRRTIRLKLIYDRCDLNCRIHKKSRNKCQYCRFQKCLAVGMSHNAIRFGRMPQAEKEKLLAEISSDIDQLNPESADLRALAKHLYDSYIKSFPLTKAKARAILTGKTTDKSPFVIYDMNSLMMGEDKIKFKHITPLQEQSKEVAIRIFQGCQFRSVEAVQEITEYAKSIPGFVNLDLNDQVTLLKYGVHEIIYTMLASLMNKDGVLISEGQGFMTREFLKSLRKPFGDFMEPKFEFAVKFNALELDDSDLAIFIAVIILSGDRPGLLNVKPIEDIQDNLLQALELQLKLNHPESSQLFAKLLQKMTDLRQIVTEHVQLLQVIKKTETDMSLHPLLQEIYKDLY
T1 sequence (P19793 1-462 partner): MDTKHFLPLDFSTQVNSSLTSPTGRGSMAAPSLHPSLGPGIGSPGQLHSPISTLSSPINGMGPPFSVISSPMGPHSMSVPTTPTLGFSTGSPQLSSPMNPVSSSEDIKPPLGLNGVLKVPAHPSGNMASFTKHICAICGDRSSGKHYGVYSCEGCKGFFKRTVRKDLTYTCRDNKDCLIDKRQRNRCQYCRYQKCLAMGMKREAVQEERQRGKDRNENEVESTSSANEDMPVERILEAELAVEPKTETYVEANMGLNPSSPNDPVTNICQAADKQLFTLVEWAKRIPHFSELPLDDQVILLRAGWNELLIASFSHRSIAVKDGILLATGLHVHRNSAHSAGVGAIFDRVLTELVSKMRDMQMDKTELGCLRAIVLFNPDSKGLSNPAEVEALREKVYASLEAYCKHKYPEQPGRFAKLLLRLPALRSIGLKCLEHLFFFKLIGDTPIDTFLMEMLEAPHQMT
As to the kind of experiment: DNA-dependent binding (ABCD binding), SPA, radioligand displacement. The conditions noted are these: tritium-labeled PPARγ agonist radioligand. Here is the method: (§2) […] binding (ABCD binding) was carried out using SPA technology with PPAR receptors. Tritium-labeled PPARα and PPARγ agonists were used as radioligands for generating displacement curves and IC50 values with compounds of the invention. Cotransfection assays were carried out in CV-1 cells. The reporter plasmid contained an acylCoA oxidase (AOX) PPRE and TK promoter upstream of the luciferase reporter cDNA. Appropriate PPARs and RXRα were constitutively expressed using plasmids containing the CMV promoter. […] In order to eliminate such interference, a GAL4 chimeric system was used in which the DNA binding domain of the transfected PPAR was replaced by that of GAL4, and the GAL4 response element was utilized in place of the AOX PPRE. Cotransfection efficacy was determined relative to PPARα agonist and […] reference molecules. Efficacies were determined by computer fit to a concentration-response curve, or in some cases at a single high concentration of agonist (10 μM). For binding or cotransfection studies with receptors other than PPARs, similar assays were carried out using appropriate ligands, receptors, reporter constructs, etc., for that particular receptor.
as §1
Background: In a radioligand displacement assay an active substance lowers the binding of a labelled ligand.

The target in test [3] is T2, huPPARα (Homo sapiens, UniProt Q07869).
T2 sequence (Q07869 1-468): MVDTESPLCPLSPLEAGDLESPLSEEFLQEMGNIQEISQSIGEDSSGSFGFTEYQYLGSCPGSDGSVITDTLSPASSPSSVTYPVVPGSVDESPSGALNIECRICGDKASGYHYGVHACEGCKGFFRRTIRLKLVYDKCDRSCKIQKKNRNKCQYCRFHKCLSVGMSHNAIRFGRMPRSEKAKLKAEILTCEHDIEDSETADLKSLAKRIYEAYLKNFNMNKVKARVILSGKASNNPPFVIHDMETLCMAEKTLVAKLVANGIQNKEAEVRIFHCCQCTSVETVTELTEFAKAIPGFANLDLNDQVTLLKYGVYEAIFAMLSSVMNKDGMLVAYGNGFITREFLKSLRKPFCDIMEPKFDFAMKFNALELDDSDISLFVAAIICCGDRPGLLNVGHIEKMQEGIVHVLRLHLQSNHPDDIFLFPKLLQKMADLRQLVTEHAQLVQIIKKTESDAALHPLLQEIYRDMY
T2 sequence (P19793 1-462 partner): T1 sequence (P19793 1-462 partner)
The description is as above. The conditions noted are these: tritium-labeled PPARα agonist radioligand. Here is the method:
as §2, §1

pIC50: −log10 of the molar value.

A word on the pIC50: it is the IC50 on a negative log10 scale, so that one unit is a factor of ten. Higher therefore signals a small IC50. Consider `Cc1oc(-c2cccc(-c3ccc(F)cc3)c2)nc1CCOc1ccc(CC(C)(Oc2ccccc2)C(=O)O)cc1` (stereo not drawn) [Example 4, 3-(4-{2-[2-(4′-Fluorobiphenyl-3-yl)-5-methyloxazol-4-yl]ethoxy}phenyl)-2-methyl-2-phenoxypropionic acid], for which, in test [1], the “huPPARγ CTF Efficacy” value turned out to be 93%. The pIC50 is 7.39 in test [2] and 6.83 in test [3].
